Measured values as given in patent publication US20040156869A1, “2-substituted quinazolin-4-ylamine analogues” (Neurogen Corporation, priority 2002, published 2004).

target: human capsaicin receptor (VR1) (Homo sapiens, UniProt Q8NER1); test: Capsaicin receptor binding assay ([3H]RTX competition, VR1-transfected HEK293 membranes)
Sequence (Q8NER1 whole entry): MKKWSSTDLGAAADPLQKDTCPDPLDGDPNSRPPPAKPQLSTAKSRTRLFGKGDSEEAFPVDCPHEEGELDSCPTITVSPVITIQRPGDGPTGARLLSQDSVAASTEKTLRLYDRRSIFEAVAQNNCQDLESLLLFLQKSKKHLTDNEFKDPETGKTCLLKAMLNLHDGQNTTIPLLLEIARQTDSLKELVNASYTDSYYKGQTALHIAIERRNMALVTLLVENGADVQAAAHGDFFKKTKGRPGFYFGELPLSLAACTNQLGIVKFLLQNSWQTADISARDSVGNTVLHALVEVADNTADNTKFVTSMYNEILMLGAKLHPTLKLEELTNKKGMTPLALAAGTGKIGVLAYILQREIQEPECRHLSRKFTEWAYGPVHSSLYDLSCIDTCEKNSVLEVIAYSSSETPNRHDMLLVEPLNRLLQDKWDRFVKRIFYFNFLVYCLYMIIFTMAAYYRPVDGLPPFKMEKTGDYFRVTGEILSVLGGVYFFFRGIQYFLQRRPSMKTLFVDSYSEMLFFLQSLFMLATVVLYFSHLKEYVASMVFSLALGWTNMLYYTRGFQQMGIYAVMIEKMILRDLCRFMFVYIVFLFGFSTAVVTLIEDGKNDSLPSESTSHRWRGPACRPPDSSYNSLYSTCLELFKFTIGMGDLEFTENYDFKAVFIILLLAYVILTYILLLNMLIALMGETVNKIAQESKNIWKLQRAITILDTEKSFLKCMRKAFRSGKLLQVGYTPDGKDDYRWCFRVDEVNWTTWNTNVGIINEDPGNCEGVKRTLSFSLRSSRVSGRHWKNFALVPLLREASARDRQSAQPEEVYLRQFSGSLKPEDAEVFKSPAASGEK

Ki, < 1000 nM:
CN(CCc1ccccc1)CCc1nc(Nc2ccc(C(F)(F)F)cc2)c2ccc(-c3ncccc3C(F)(F)F)cc2n1 [Compound 398, [2-[2-(Methyl-phenethyl-amino)-ethyl]-7-(3-trifluoromethyl-pyridin-2-yl)-quinazolin-4-yl]-(4-trifluoromethyl-phenyl)-amine]
O=C(NCCN1CCCC1)c1nc(Nc2ccc(C(F)(F)F)cc2)c2ccc(-c3ncccc3C(F)(F)F)cc2n1 [Compound 763, 4-(4-Trifluoromethyl-phenylamino)-7-(3-trifluoromethyl-pyridin-2-yl)-quinazoline-2-carboxylic acid (2-pyrrolidin-1-yl-ethyl)-amide]
CC(C)COCc1nc(Nc2ccc(C(C)(C)C#N)cc2)c2ccc(-c3ncccc3Cl)nc2n1 [Compound 179, 2-{4-[7-(3-Chloro-pyridin-2-yl)-2-isobutoxymethyl-pyrido[2,3-d]pyrimidin-4-ylamino]-phenyl}-2-methyl-propionitrile]
CCC(c1ccccc1)N(C)CCc1nc(Nc2ccc(C(F)(F)F)cc2)c2ccc(-c3ncccc3C(F)(F)F)cc2n1 (centres unmarked) [Compound 390, [2-{2-[Methyl-(1-phenyl-propyl)-amino]-ethyl}-7-(3-trifluoromethyl-pyridin-2-yl)-quinazolin-4-yl]-(4-trifluoromethyl-phenyl)-amine]
COCc1nc(Nc2ccc(C(F)(F)F)cc2)c2ccc(-c3nccnc3Cl)nc2n1 [Compound 235, [7-(3-Chloro-pyrazin-2-yl)-2-methoxymethyl-pyrido[2,3-d]pyrimidin-4-yl]-(4-trifluoromethyl-phenyl)-amine]
COCc1nc(Nc2ccc(C(C)=O)cc2)c2ccc(-c3ncccc3C(F)(F)F)nc2n1 [Compound 289, 1-{4-[2-Methoxymethyl-7-(3-trifluoromethyl-pyridin-2-yl)-pyrido[2,3-d]pyrimidin-4-ylamino]-phenyl}-ethanone]
COC(=O)CCc1nc(Nc2ccc(C(F)(F)F)nc2)c2ccc(-c3ncccc3C(F)(F)F)cc2n1 [Compound 18, 3-[7-(3-Trifluoromethyl-pyridin-2-yl)-4-(6-trifluoromethyl-pyridin-3-ylamino)-quinazolin-2-yl]-propionic acid methyl ester]
CCNCc1nc(Nc2ccc(C(F)(F)F)cc2)c2ccc(-c3ncccc3C(F)(F)F)cc2n1 [Compound 531, [2-Ethylaminomethyl-7-(3-trifluoromethyl-pyridin-2-yl)-quinazolin-4-yl]-(4-trifluoromethyl-phenyl)-amine]
C[C@@H]1CN(Cc2nc(Nc3ccc(C(C)(C)C)cc3)c3ccc(-c4ccncc4)cc3n2)C[C@H](C)O1 [Compound 675, (4-tert-Butyl-phenyl)-[2-(2,6-dimethyl-morpholin-4-ylmethyl)-7-pyridin-4-yl-quinazolin-4-yl]-amine (cis)]
CC(C)S(=O)(=O)c1ccc(Nc2nc(CN3CCO[C@@H](C)C3)nc3cc(-c4ncccc4Cl)ccc23)cc1 [Compound 646, (S)-[7-(3-Chloro-pyridin-2-yl)-2-(2-methyl-morpholin-4-ylmethyl)-quinazolin-4-yl]-[4-(propane-2-sulfonyl)-phenyl]-amine]
CC(C)COCc1nc(Nc2ccc(OC(F)(F)F)cc2)c2ccc(-c3ncccc3C(F)(F)F)nc2n1 [Compound 189, [2-Isobutoxymethyl-7-(3-trifluoromethyl-pyridin-2-yl)-pyrido[2,3-d]pyrimidin-4-yl]-(4-trifluoromethoxy-phenyl)-amine]
CC(c1ccc(Nc2nc(CN3CCCCC3)nc3cc(-c4ncccc4C(F)(F)F)ccc23)cc1)C(F)(F)F (centres unmarked) [Compound 523, [2-Piperidin-1-ylmethyl-7-(3-trifluoromethyl-pyridin-2-yl)-quinazolin-4-yI]-[4-(2,2,2-trifluoro-1-methyl-ethyl)-phenyl]-amine]
CC1(C)CN(Cc2nc(Nc3ccc(C(F)(F)F)cc3)c3ccc(-c4ncccc4Cl)cc3n2)CCO1 [Compound 740, [7-(3-Chloro-pyridin-2-yl)-2-(2,2-dimethyl-morpholin-4-ylmethyl)-quinazolin-4-yl]-(4-trifluoromethyl-phenyl)-amine]
CCOCc1nc(Nc2ccc(C(F)(F)F)cc2)c2ccc(-c3ncccc3Cl)nc2n1 [Compound 134, [7-(3-Chloro-pyridin-2-yl)-2-ethoxymethyl-pyrido[2,3-d]pyrimidin-4-yl]-(4-trifluoromethyl-phenyl)-amine]
CCN(Cc1nc(Nc2ccc(C(F)(F)F)cc2)c2ccc(-c3ncccc3C(F)(F)F)cc2n1)C(C)C [Compound 332]
O=C(c1nc(Nc2ccc(C(F)(F)F)cc2)c2ccc(-c3ncccc3C(F)(F)F)nc2n1)N1CCCCC1 [Compound 460, Piperidin-1-yl-[4-(4-trifluoromethyl-phenylamino)-7-(3-trifluorornethyl-pyridin-2-yl)-pyrido[2,3-d]pyrimidin-2-yl]-methanone]
COc1ccc(CNCc2nc(Nc3ccc(C(F)(F)F)nc3)c3ccc(-c4ncccc4C(F)(F)F)cc3n2)cc1 [Compound 577, [2-[(4-Methoxy-benzylamino)-methyl]-7-(3-trifluoromethyl-pyridin-2-yl)-quinazolin-4-yl]-(6-trifluoromethyl-pyridin-3-yl)-amine]
CCOCc1nc(Nc2ccc(C(C)C)cc2)c2ccc(-c3ncccc3C)cc2n1 [Compound 104, [2-Ethoxymethyl-7-(3-methyl-pyridin-2-yl)-quinazolin-4-yl]-(4-isopropyl-phenyl)-amine]
FC(F)(F)c1ccc(Nc2cc(CN3CCCCC3)nc3nc(-c4ncccc4C(F)(F)F)ccc23)cc1 [Compound 799, [2-Piperidin-1-ylmethyl-7-(3-trifluoromethyl-pyridin-2-yl)-[1,8]naphthyridin-4-yl]-(4-trifluoromethyl-phenyl)-amine]
COCCN(CCOC)Cc1nc(Nc2ccc(C(C)C(F)(F)F)cc2)c2ccc(-c3ncccc3C(F)(F)F)cc2n1 (centres unmarked) [Compound 527, [2-{[Bis-(2-methoxy-ethyl)-amino]-methyl}-7-(3-trifluoromethyl-pyridin-2-yl)-quinazolin-4-yl]-[4-(2,2,2-trifluoro-1-methyl-ethyl)-phenyl]-amine]
O=CN1CCN(CCc2nc(Nc3ccc(C(F)(F)F)cc3)c3ccc(-c4ncccc4C(F)(F)F)cc3n2)CC1 [Compound 562, 4-{2-[4-(4-Trifluoromethyl-phenylamino)-7-(3-trifluoromethyl-pyridin-2-yl)-quinazolin-2-yl]-ethyl}-piperazine-1-carbaldehyde]
CC1CN(Cc2nc(Nc3ccc(C(F)(F)F)cc3)c3ccc(-c4ncccc4Cl)cc3n2)CC(C)N1 (centres unmarked) [Compound 634, [7-(3-Chloro-pyridin-2-yl)-2-(3,5-dimethyl-piperazin-1-ylmethyl)-quinazolin-4-yl]-(4-trifluoromethyl-phenyl)-amine]
FC(F)(F)Oc1ccc(Nc2nc(COCc3ccccc3)nc3cc(-c4ncccc4C(F)(F)F)ccc23)cc1 [Compound 27, [2-Benzyloxymethyl-7-(3-trifluoromethyl-pyridin-2-yl)-quinazolin-4-yl]-(4-trifluoromethoxy-phenyl)-amine]
